# Marks after values point to notes of the source that are not given here.
# Tests used:
# [1] = Profile of Mood State (POMS) rating scale, randomized 4-phase cross-over study, intravenous administration; type: in vivo, healthy male volunteers; settings: i.v.; for Rank order of ratings for Tension, Depression and Anger: three components of Dysphoria, same order in each case; for Vigor ratings: POMS Vigor-Activity
# From the text: The Profile of Mood State (POMS) rating scale was used to estimate pharmacodynamic factors including Anger-Hostility, Confusion-Bewilderment, Depression-Dejection, Fatigue-Inertia, Tension-Anxiety, and Vigor-Activity. In addition composite scores were also produced for “Energy” (“Vigor-Activity” minus “Fatigue-Inertia”) and “Dysphoria” (“Anger-Hostility” plus “Depression-Rejection” plus “Tension-Anxiety”).
# [2] = plasma; i.v. 10 mg d1-MPH; 11 healthy male volunteers; mean ± SD; cited from earlier work
# [3] = after oral administration of the racemic drug; cited from earlier work
# [4] = oral, cited from earlier work
SMILES,"Rank order of ratings for Tension, Depression and Anger [1]",t1/2 [2],Absolute bioavailability (F) [3],"Hamilton depression scale decrease, subjects with minimal decrease ([4]; 3 subjects) [%]","Hamilton depression scale decrease, subjects with marked decrease ([4]; 7 subjects) [%]","Benefit in depressed patients ([4]; older, medically ill depressed patients, n=16)",Vigor ratings ([1]; healthy male volunteers),"Effect on ""Energy"" composite score ([1]; healthy male volunteers)",POMS rating for Fatigue-Inertia ([1]; healthy male volunteers)
"COC(=O)[C@@H](c1ccccc1)[C@@H]1CCCCN1 [1-MPH, 2S,2′S-methyl 2-phenyl-2-(2′-piperidyl) acetate]",1-MPH<placebo<d1-MPH<d-MPH,3.61 ± 1.12^b,0.05,,,,,,
"COC(=O)[C@H](c1ccccc1)[C@H]1CCCCN1 [d1-MPH, d1-threo-methylphenidate]",1-MPH<placebo<d1-MPH<d-MPH,,,< 30,> 55,statistically and clinically significant,significantly different from those for 1-MPH and placebo,enhanced,
"COC(=O)[C@H](c1ccccc1)[C@H]1CCCCN1 [d-MPH, d-threo-methylphenidate]",1-MPH<placebo<d1-MPH<d-MPH,,,,,,significantly different from those for 1-MPH and placebo,not strongly energizing,significantly different from those after 1-MPH

# Source: patent US6395752B1, “Method of treating depression using 1-threo-methylphenidate” (Pharmaquest Limited, priority 1999, dated 2002)
